Here are results for eleven compounds from patent publication US7419961B2, “9a-azalides with anti-inflammatory activity” (Zambon S.p.A., priority 2002, dated 2008).

Experiment [1] deals with mouse ear edema induced by PMA (phorbol myristate acetate). In words: Acute contact dermatitis: TPA-induced auricular edema. The class given is in vivo, CD1 mice. The note with it: 500 μg/ear topical in TPDS, 30 min before TPA 0.01%, sacrifice 6 h later. As to the method: Groups of 5-6 CD1 mice (18-24 g) were used. • Administration of the Compounds All the macrolide derivatives were dissolved in Trans-phase Delivery System (TPDS), a vehicle containing benzyl alcohol 10%, acetone 40% and isopropanol 50%. 15 microliters of the compounds (500 μg), dissolved in TPDS, were applied topically to the internal surface of one ear; 30 minutes later, 12 microliters of a solution of tetradecanoyl phorbol acetate (TPA) at a concentration of 0.01% dissolved in acetone, were applied to the same area. Six hours later, the animals were sacrificed by inhalation of CO2. • Evaluation of the Results Two methods were used for assessing the auricular edema: • a) Weighing a defined portion of auricular pinna. • b) Measurement of auricular thickness using precision spring calipers. The degree of edema was calculated by subtracting the weight or the thickness of the untreated ear from that of the treated contralateral ear. To determine the degree of remission of the edema, the difference (weight or thickness) of the groups treated with TPA+macrolides relative to those treated with just TPA was compared. The activity of the macrolides was measured using the modified method of Zunic et al. (1998): MDL (Lysyl) GDP, a non-toxil muramyl dipeptide derivative inhibits cytokine production by activated macrophages and protects mice from phorbol ester- and oxazolone-induced inflammation (J. Invest. Dermatol., 111 (1), 77-82). The data relating to erythromycin and azithromycin refer to treatment in a single dose at 500 μg/ear.

The test system of experiment [2] is Staphylococcus aureus ATCC 6538. In words: Antibiotic activity at 128 μg/ml. The class given is cell-based. The procedure: (§1) The MIC values were determined in liquid culture medium by the technique described in the “Manual of Clinical Microbiology, 7th edition (1999), American Society for Microbiology”.
Experiment [3] has as its system Streptococcus pyogenes ATCC 19615. The experiment in a line: Antibiotic activity at 128 μg/ml. The class given is cell-based. As to the method:
as §1

Experiment [4] concerns accumulation of neutrophils in the rat lung induced by LPS. The experiment in a line: LPS-induced pulmonary inflammation in the rat. The experiment is classed as in vivo. The note with it: oral single dose 100, 40 and 10 μmol/kg one hour before LPS 0.4 mg/kg endotracheally; 20 h; erythromycin: single oral dose 130 μmol/kg. As to the method:
The rats were given a single dose of 0.4 mg/kg of LPS (E. coli, serotype 026:6) endotracheally, by the trans-oral route. Tracheal instillation was carried out under halothane anesthesia and 20 hours after the endotracheal administration of LPS/saline solution the animals were sacrificed by urethane overdose. • Washing
The lungs were washed with four aliquots each of 5 ml of saline solution with heparin 10 IU/ml. The cellular suspension was concentrated by low-speed centrifugation and the cellular pellet was suspended. • Cell Count and Differentiation
The total cell count was obtained using a hemocytometer.
The differential count was obtained from cytospin preparations stained with May-Grunwald-Giemsa (Tamaoki J., Tagaya E., Yamawaki I., Sakai N., Nagai A., Konno K., 1995. Effect of erythromycin on endotoxin-induced microvascular leakage in the rat trachea and lungs. Am. J. Respir. Crit. Care Med., 151, 1582-8). The rats received the test compounds orally at a dose of 100, 40 and 10 μmol/kg as a single dose administered orally one hour before exposure to LPS.
The ED/50 value is the dose that caused 50% reduction in the neutrophil count in the bronchial wash fluid.
The result for erythromycin relates to oral treatment in a single dose with 130 μmol/kg.

Experiment [5] concerns Enterococcus faecalis ATCC 29212. The experiment in a line: Antibiotic activity, MIC in liquid culture medium. The experiment is classed as cell-based. The note with it: ATCC29212, lowest concentration that completely inhibits visible growth, read-out: Enter. faec. ATCC 29212 MIC. As to the method: as §1
For experiment [6], the system named is Streptococcus pneumoniae ATCC 49619. The experiment in a line: Antibiotic activity, MIC in liquid culture medium. The experiment is classed as cell-based. The note with it: ATCC49619, lowest concentration that completely inhibits visible growth, read-out: Str. pneum. ATTC 49619 MIC. As to the method: as §1
Experiment [7] concerns Staphylococcus aureus ATCC 29213. The experiment in a line: Antibiotic activity, MIC in liquid culture medium. The class given is cell-based. Particulars: ATCC29213, lowest concentration that completely inhibits visible growth, read-out: Sta. aureus ATCC 29213 MIC. As to the method: as §1
Where [8] appears, read: method a: weighing a defined portion of auricular pinna.

Values after ≈ are worked out from the molar mass of the structure shown. Bounds are passed on as bounds.

As to `CC[C@H]1OC(=O)[C@H](C)[C@@H](O[C@H]2C[C@@](C)(OC)[C@@H](O)[C@H](C)O2)[C@H](C)[C@@H](O[C@@H]2O[C@H](C)C[C@H](N(C)C)[C@H]2O)[C@](C)(O)C[C@@H](C)CN(C)[C@H](C)[C@@H](O)[C@]1(C)O` [Azithromycin, reference compound], the inhibition in vivo (commonly how much of the control response was suppressed) at 500 µg/ear in experiment [1] (setting [8]) was 40%.

Consider `CC[C@H]1OC(=O)[C@H](C)[C@@H](O)[C@H](C)[C@@H](O[C@@H]2O[C@H](C)C[C@H]([N+](C)(C)[O-])[C@H]2O)C(C)(O)C[C@@H](C)CN(C)[C@H](C)[C@@H](O)[C@]1(C)O` (stereo partly drawn) [Compound 1], for which the “Sta. aureus ATCC 6538 128 (μg/ml)” value in experiment [2] is given as “not active”. For the same compound, in experiment [3], the “Str. pyogen. ATTC 19615 128 (μg/ml)” value is reported as “not active”. This compound also came in with an inhibition in vivo at 500 µg/ear in experiment [1] (setting [8]) of 56.7%. The “ED/50 (dose that caused 50% reduction in the neutrophil count in the bronchial wash fluid)” value in experiment [4] stood at 10 µmol/kg. Moreover, the MIC (usually the smallest concentration in the dilution series that meets the test's criterion for growth inhibition) in experiment [5] was over 128 µg/mL.

In experiment [1] (setting [8]), `CC[C@H]1OC(=O)[C@H](C)[C@@H](O)[C@H](C)[C@@H](O[C@@H]2O[C@H](C)C[C@H]([N+](C)(C)[O-])[C@H]2O)C(C)(O)C[C@@H](C)C[N+](C)([O-])[C@H](C)[C@@H](O)[C@]1(C)O` (stereo partly drawn) [Compound 2] yielded an inhibition in vivo at 500 µg/ear of 25.3%.

`CC[C@H]1OC(=O)[C@H](C)[C@@H](O)[C@H](C)[C@@H](O[C@@H]2O[C@H](C)C=C[C@H]2O)C(C)(O)C[C@@H](C)CN(C)[C@H](C)[C@@H](O)[C@]1(C)O` (stereo partly drawn) [Compound 3] displayed an inhibition in vivo at 500 µg/ear in experiment [1] (setting [8]) of 34.4%.

Compound `CC[C@H]1OC(=O)[C@H](C)[C@@H](O)[C@H](C)[C@@H](O[C@@H]2O[C@H](C)CC[C@H]2O)C(C)(O)C[C@@H](C)CN(C)[C@H](C)[C@@H](O)[C@]1(C)O` (stereo partly drawn) [Compound 4] returned an inhibition in vivo at 500 µg/ear in experiment [1] (setting [8]) of 16.5%.

Consider `CC[C@H]1OC(=O)[C@H](C)[C@@H](O)[C@H](C)[C@@H](O[C@@H]2O[C@H](C)C[C@H](N(C)C(C)=O)[C@H]2O)C(C)(O)C[C@@H](C)CN(C)[C@H](C)[C@@H](O)[C@]1(C)O` (stereo partly drawn) [Compound 5], for which, in experiment [1] (setting [8]), the inhibition in vivo at 500 µg/ear was 40.5%.

Consider `CC[C@H]1OC(=O)[C@H](C)[C@@H](O)[C@H](C)[C@@H](O[C@@H]2O[C@H](C)C[C@H](N(C)C)[C@H]2O)C(C)(O)C[C@H](C)CN(CCCNCc2nccs2)[C@H](C)[C@@H](O)[C@]1(C)O` (stereo partly drawn) [Compound 6], for which the values for the MIC in experiment [6], in experiment [5] and in experiment [7] were 8 µg/mL (≈ 10.9 µM), 64 µg/mL (≈ 87.6 µM) and 64 µg/mL (≈ 87.6 µM), respectively.

In experiment [1] (setting [8]), `CC[C@H]1OC(=O)[C@H](C)[C@@H](O)[C@H](C)[C@@H](O[C@@H]2O[C@H](C)C[C@H](N(C)C)[C@H]2O)C(C)(O)C[C@@H](C)CN(CCCNCc2c[nH]cn2)[C@H](C)[C@@H](O)[C@]1(C)O` (stereo partly drawn) [Compound 8] had an inhibition in vivo at 500 µg/ear of 29.7%.

As to `CC[C@H]1OC(=O)[C@H](C)[C@@H](O)[C@H](C)[C@@H](O[C@@H]2O[C@H](C)C[C@H](N(C)C)[C@H]2O)C(C)(O)C[C@@H](C)CN(CCCNCCCCCCNCc2ccccc2)[C@H](C)[C@@H](O)[C@]1(C)O` (stereo partly drawn) [Compound 12], the inhibition in vivo at 500 µg/ear in experiment [1] (method b: auricular thickness using precision spring calipers) stood at 39.5%. Besides, the MIC in experiment [6] is 64 µg/mL (≈ 77.7 µM); in experiment [5] it was over 128 µg/mL; in experiment [7], over 128 µg/mL.

With `CC[C@H]1OC(=O)[C@H](C)[C@@H](O)[C@H](C)[C@@H](O[C@@H]2O[C@H](C)CC[C@H]2O)C(C)(O)C[C@@H](C)CN(CCCNCCNCc2nccs2)[C@H](C)[C@@H](O)[C@]1(C)O` (stereo partly drawn) [Compound 13], the inhibition in vivo at 500 µg/ear in experiment [1] (setting [8]) was 44.7%.

Regarding `CC[C@H]1OC(=O)[C@H](C)[C@@H](O[C@H]2C[C@@](C)(OC)[C@@H](O)[C@H](C)O2)[C@H](C)[C@@H](O[C@@H]2O[C@H](C)C[C@H](N(C)C)[C@H]2O)[C@](C)(O)C[C@@H](C)C(=O)[C@H](C)[C@@H](O)[C@]1(C)O` [Erythromycin, erythromycin, reference compound], the inhibition in vivo at 500 µg/ear in experiment [1] (setting [8]) worked out at 42%. Besides, the “ED/50 (dose that caused 50% reduction in the neutrophil count in the bronchial wash fluid)” value in experiment [4] is “not active”. Moreover, the MIC in experiment [6] amounted to 0.12 µg/mL (≈ 0.164 µM); in experiment [5], 1 µg/mL (≈ 1.36 µM); in experiment [7], 0.25 µg/mL (≈ 0.341 µM).
